Experimental data taken from US11187660B2, “Fluorescent probes for monitoring voltage by photo-induced electron transfer” (The Regents of the University of California, priority 2011, dated 2021).

Columns and labels:
[1] = Absorbance and emission spectra in aqueous buffer with Triton X-100; format: physicochemical; settings: 5 mM sodium phosphate, pH 9, 0.1% Triton X-100
Protocol: FIG. 8A, FIG. 8B, and FIG. 8C show the normalized absorbance and emission spectra for exemplary compounds of the invention in 5 mM sodium phosphate, pH 9 with 0.1% Triton X-100. Black lines are absorbance spectra; grey lines are emission spectra. a) VF1.4.Cl, b) VF2.4.Cl, and c) VF2.1.Cl.
All dyes feature emission and excitation profiles typical of dichlorofluoresceins (VF1.4.Cl: λmax=521 nm, ε=93,000 M^−1·cm^−1, λem=534 nm, Φ=0.24; VF2.4.Cl: λmax=522 nm, ε=97,000 M^−1·cm^−1, λem=536 nm, Φ=0.054; VF2.1.Cl: λmax=522 nm, ε=98 000 M^−1·cm^−1, λcm=535 nm, Φ=0.057, 5 mM sodium phosphate, pH 9, 0.1% Triton X-100) (FIG. 8).
UV absorbance and fluorescence spectra were recorded on a Cary 3E (Varian) and Fluorolog 2 (Spex) fluorimeter, respectively. Analytical, semi-preparative, and preparative HPLCs were performed on Agilent HPLCs, with Luna C18(2) columns (Phenomenex) using water (solvent A) and acetonitrile (solvent B) with 0.05% TFA as an additive. Low resolution ESI mass spectrometry was performed on an Agilent LC/MSD Trap XCT coupled to an Agilent HPLC. High resolution mass spectra were acquired on a ThermoFisher Orbitrap XL hybrid mass spectrometer. ^1H NMR spectra were collected in CDCl3 or d6-DMSO (Cambridge Isotope Laboratories, Cambridge, Mass.) at 25° C. on a 400 Varian Mercury Plus or Jeol ECA 500 spectrometer at the Department of Chemistry and Biochemistry NMR Facility at the University of California, San Diego. All chemical shifts are reported in the standard δ notation of parts per million using the peak of residual proton signals of CDCl3 or d6-DMSO as an internal reference.

HEK cells [2] = test: Bleach rate in HEK cells; format: cell-based, human; settings: for bleach rate: HEK cells, 7 W/cm^2
Protocol: The dibutyl (VFx.4.Cl) dyes stain the cell membranes of HEK293 cells when loaded at a concentration of 2 μM for 15 min at 37° C. in buffer with 0.1% DMSO as cosolvent (FIG. 9A, and FIG. 10). […] The bleach rates of the probes were tested in HEK cells and compared with di-4-ANEPPS. The bleach rates for VF1.4.Cl, VF2.4.Cl, and VF2.1.Cl at 7 W/cm^2 were measured to be 3.9±0.1×10^−2 s^−1, 1.8±0.1×10^−2 s^−1, and 8.0±0.1×10^−3 s^−1, respectively.
For studies to determine excitation sensitivity of dyes, illumination was provided by a Polychrom IV light source (T.I.L.L. Photonics GMBH) with a mechanical shutter (Uniblitz VS25). For all other studies, light was provided by an Xenon arc lamp powered by an Optiquip Power supply (Optiquip) with a mechanical shutter controlled by a Lambda 10-2 controller (Sutter). Light from the Xenon arc lamp was filtered through a 480 nm filter (30 nm bandpass, Chroma), a 510 nm dichroic (Semrock), a 530 nm emission filter (50 nm bandpass, Semrock), and focused through a 40×/1.4 oil objective. For di-4-ANEPPS imaging, a 625 nm emission filter with a 50 nm bandpass was used. Bleaching studies used identical illumination conditions (480/30 nm excitation, 510 nm dichroic, 7 W/cm^2 output) and were corrected by normalizing for the extinction coefficient at the excitation wavelengths (465-495 nm).

HEK293 cells [3] = test: Voltage sensitivity of fluorescence in voltage-clamped HEK cells (whole-cell recording); format: cell-based, human
Text: Membrane voltage of cells loaded with VF1.4.Cl or VF2.4.Cl were controlled by making tight-seal whole-cell recordings. Cells were maintained at a holding potential of −60 mV and stepped for 50 ms to various depolarizing and hyperpolarizing potentials (FIG. 5A), while simultaneously acquiring epifluorescence images. For both sensors, depolarizing steps result in fluorescence increases while hyperpolarizing steps decrease fluorescence intensity, in keeping with our proposed mechanism. […] For di-4-ANEPPS, typical values are 0.08-0.12% per mV. The larger changes for VF1.4.Cl and VF2.4.Cl compared to di-4-ANEPPS are somewhat expected, since a PeT-based voltage sensor samples the entire emission spectrum, whereas electrochromic dyes are limited to the edge of the spectrum only. For both probes, the voltage responses are linear across the physiologically relevant ranges of −100 mV to +100 mV. To assess the speed of the optical response to voltage, VF2.4.Cl signals were monitored in response to voltage steps of 100 mV from a holding potential of −60 mV.
We characterized the voltage sensitivity of all three indicators by making tight-seal whole-cell recordings of HEK293 cells stained with the VF sensors. Cells were voltage-clamped at −60 mV holding potential and sequentially stepped to depolarizing and hyperpolarizing potentials at 20-mV increments (FIG. 9B). For all three dyes, depolarizing steps produced fluorescence increases, whereas hyperpolarizing steps produced fluorescence decreases, in keeping with the proposed PeT mechanism. The fluorescence response is linear over the range of −100 mV to +100 mV (FIG. 9C), with voltage sensitivities ΔF/F per 100 mV of 20±1% for VF1.4.Cl and 25±1% for VF2.4.Cl. This statistically significant increase in voltage sensitivity (P<0.05, two-tailed Student t test) is expected upon increasing the length of the molecular wire, and is 2.5- to 4-times more sensitive than di-4-ANEPPS, which, in our hands, gives sensitivities of between 6% and 10% ΔF/F per 100 mV. […] To investigate the speed of response of VF probes, we again made whole-cell recordings of cells stained with VF2.4.Cl, applied 100-mV depolarizing steps from a holding potential of −60 mV, and recorded both the electrophysiological signals and the optical signals.
Electrophysiological recordings of HEK293 cells and cultured neurons were performed with an Axopatch 200A or 200B amplifier (Molecular Devices) at room temperature. The signals were digitized with Digidata 1332A and recorded with pCLAMP 9 software (Molecular Devices) on a PC. Analysis of electrophysiological data was done with AxoGraph X (AxoGraphX), pCLAMP 9, and/or ClampFit (Molecular Devices). For most experiments the extracellular solution consisted of (in mM) 145 NaCl, 20 glucose, 10 HEPES, 3 KCl, 2 CaCl2, 1 MgCl2 (pH 7.35, 310 mOsm). The intracellular solution contained (in mM) 115 potassium gluconate, 10 BAPTA tetrapotassium salt, 10 HEPES, 5 NaCl, 10 KCl, 2 ATP disodium salt, 0.3 GTP trisodium salt (pH 7.25, 290 mOsm).
For studies to determine excitation sensitivity of dyes, illumination was provided by a Polychrom IV light source (T.I.L.L. Photonics GMBH) with a mechanical shutter (Uniblitz VS25). For all other studies, light was provided by an Xenon arc lamp powered by an Optiquip Power supply (Optiquip) with a mechanical shutter controlled by a Lambda 10-2 controller (Sutter). […]

HEK cells [4] = test: Excitation wavelength dependence of voltage response in HEK cells; format: cell-based, human; settings: 100 mV depolarizing steps, excitation 445 to 500 nm in 5 nm increments for VF2.4.Cl
Text: The ΔF/F for VF2.4.Cl is relatively insensitive to the excitation wavelength. As opposed to di-4-ANEPPS and other electrochromic dyes (ref the biochemistry paper and the ANINNE6 2004 Denk paper), which are highly sensitive to excitation wavelength, PeT-based sensors yield fluorescent responses which are invariant across their excitation spectra. To establish the invariant nature of the fluorescence response, HEK cells were loaded, as before, with VF2.4.Cl and subjected to depolarizing steps of 100 mV, each time varying the excitation wavelength. […] In contrast, di-4-ANEPPS varies by nearly 100%. Excitation at the red edge of the spectrum gives a maximal response whereas excitation at the blue edge gives a response that is some 10- to 20-fold less than the maximal response.
The fluorescence response of VF2.4.Cl to voltage changes is insensitive to the excitation wavelength, as is true for PeT-based probes, such as fluo-3 and Calcium Green-1. We assayed the wavelength dependence of VF2.4.Cl by changing the excitation wavelength in 5-nm steps and determined that the fluorescence response of VF2.4.Cl to a 100-mV depolarization from a holding potential of −60 mV varied only about 15% when testing wavelengths from 445 to 500 nm (FIG. 11C). […]

HEK cells [5] = settings: literature (32); cited from earlier work
HEK293 cells [6] = settings: typical values for di-4-ANEPPS; cited from earlier work
[7] = test system: cultured hippocampal neurons; settings: cultured hippocampal neurons (25); cited from earlier work

Row | Φ [1] | ε [1] | λem [1] [nm] | λmax [1] [nm] | bleach rate (HEK cells [2]) | bleach rate, fold smaller than di-4-ANEPPS (HEK cells [2]; identical illumination conditions) | SMILES | voltage sensitivity ΔF/F per 100 mV (HEK293 cells [3]; HEK293 cells voltage-clamped at −60 mV holding potential) [%] | sensitivity, fractional fluorescence change (ΔF/F) versus change in membrane potential (HEK293 cells [3]; HEK cells, holding potential −60 mV) [% per mV] | variation of fractional fluorescence response across excitation spectrum (HEK cells [4]) [%] | variation of response over excitation spectrum (HEK cells [5]) [%] | sensitivity ΔF/F, typical values (HEK293 cells [6]) | ΔF/F for action potentials [7]
1 | 0.24 | 93,000 M^−1·cm^−1 | 534 | 521 | 3.9±0.1×10^−2 s^−1 | two- | CCCCN(CCCC)c1ccc(/C=C/c2ccc(-c3c4cc(Cl)c(=O)cc-4oc4cc(O)c(Cl)cc34)c(S(=O)(=O)O)c2)cc1 [VF1.4.Cl, (E)-5-(4-(dibutylamino)styryl)-2-(2,7-dichloro-6-hydroxy-3-oxo-3H-xanthen-9-yl)benzenesulfonic acid] | 20±1 | 0.20±0.01 |  |  |  | 
2 |  |  |  |  | 6.9±0.1×10^−2 s^−1 |  | CCCCN(CCCC)c1ccc2cc(/C=C/c3cc[n+](CCCS(=O)(=O)[O-])cc3)ccc2c1 [di-4-ANEPPS] |  |  | ~100 | ~100 | 0.08-0.12 % per mV | 
3 |  |  |  |  |  |  | Cc1ccc(N(CC(=O)O)CC(=O)O)c(OCCOc2cc(-c3c4cc(Cl)c(=O)cc-4oc4cc(O)c(Cl)cc34)ccc2N(CC(=O)O)CC(=O)O)c1 [fluo-3] |  |  |  |  |  | up to 150%
